In test [1] the test system is hα1-Gly/ZAC-II. The following applies: Gly 1 mM; data not shown. The text has this:
(§1) The construction of the ZAC-pUNIV plasmid (encoding for the human WT ZAC that contains a Thr in position 128) has been described previously. The m5-HT3A and hα1 GlyR cDNAs were subcloned from their original vectors into pUNIV (Addgene, Watertown, MA) using NheI and EcoRI as restriction enzymes. […] The C-terminus modifications in these four chimeras were introduced in their cDNAs in the same way. Point mutations were introduced in cDNAs by use of the QuikChange mutagenesis kit (Stratagene, San Diego, CA). The validity and absence of unwanted mutations in the constructed cDNAs was verified by DNA sequencing (Macrogen Europe, Amsterdam, The Netherlands).
All cDNAs used for cRNA synthesis were inserted in the pUNIV vector. […]
On the day of the TEVC recording, all compound dilutions were prepared in a saline solution [115 mM NaCl, 2.5 mM KCl, 10 mM MOPS (pH 7.5), 1.8 mM CaCl2, 0.1 mM MgCl2], and pH was adjusted to 7.5 (if needed). […] Currents were recorded using pCLAMP 10 (Molecular Devices, Sunnyvale, CA). […]
In all recordings, compounds or compound combinations were applied in the bath until the peak current decayed to a steady state (up to 30 s). […] The antagonist properties of compounds were determined by pre-application of the compound to the perfusate for 30 s followed by co-application of the compound and the agonist. […]

In test [2] the target is T1, WT hα1 GlyR (Homo sapiens, UniProt P23415).
T1 construct: expressed in transfected cells; host or cells: Xenopus oocytes injected with cRNA (pUNIV vector)
T1 sequence (P23415 29-457): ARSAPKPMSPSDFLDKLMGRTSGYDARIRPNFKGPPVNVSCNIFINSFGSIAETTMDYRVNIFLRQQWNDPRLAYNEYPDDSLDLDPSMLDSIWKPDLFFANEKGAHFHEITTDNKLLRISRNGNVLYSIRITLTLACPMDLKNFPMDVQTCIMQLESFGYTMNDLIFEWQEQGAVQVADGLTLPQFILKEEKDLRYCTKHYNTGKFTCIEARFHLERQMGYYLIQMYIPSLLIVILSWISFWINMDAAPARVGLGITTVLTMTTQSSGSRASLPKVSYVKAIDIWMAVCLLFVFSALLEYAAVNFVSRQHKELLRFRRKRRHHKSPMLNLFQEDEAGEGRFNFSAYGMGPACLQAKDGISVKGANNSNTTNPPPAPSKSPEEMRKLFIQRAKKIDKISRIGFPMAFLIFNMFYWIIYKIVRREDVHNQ
Type of test: cell-based.
Description: as §1
(§2) All cDNAs used for cRNA synthesis were inserted in the pUNIV vector. The cDNAs were linearized and subsequently transcribed and capped using the mMessage mMachine T7 RNA transcription kit (Ambion, Waltham, MA). […] Oocytes were incubated in a sterile modified Barth’s solution [88 mM NaCl, 1 mM KCl, 15 mM HEPES (pH 7.5), 2.4 mM NaHCO3, 0.41 mM CaCl2, 0.82 mM MgSO4, 0.3 mM Ca(NO3)2, 100 U/ml penicillin and 100 μg/ml streptomycin] at 16–18 °C. Based on experience gained with WT ZAC in a recent study, all TEVC recordings were performed two days after cRNA injection.
(§3) On the day of the TEVC recording, all compound dilutions were prepared in a saline solution [115 mM NaCl, 2.5 mM KCl, 10 mM MOPS (pH 7.5), 1.8 mM CaCl2, 0.1 mM MgCl2], and pH was adjusted to 7.5 (if needed). Oocytes were placed in a recording chamber continuously perfused with this saline solution, and the compounds were applied in the perfusate. Both voltage and current electrodes were agar-plugged with 3 M KCl with a resistance of 0.2–2.0 MΩ. Oocytes were voltage-clamped at −50 mV (except in the studies of the chimeras and their parent receptors where they were clamped at −60 mV, section 3.1), by a Gene Clamp 500B amplifier, and current signals were digitized by a Digidata 1322A (both from Axon Instruments, Union City, CA). Currents were recorded using pCLAMP 10 (Molecular Devices, Sunnyvale, CA). The recordings were performed at room temperature.
(§4) In all recordings, compounds or compound combinations were applied in the bath until the peak current decayed to a steady state (up to 30 s). […] The antagonist properties of compounds were determined by pre-application of the compound to the perfusate for 30 s followed by co-application of the compound and the agonist. In all recordings, washes of 1–5 min were executed between the ligand applications, the length of the washes depending on the agonist concentrations used and on the return to baseline current amplitude.
Analysis of the data from the TEVC recordings were performed using Clampfit software version 10.5 (Molecular Devices, Crawley, UK) and GraphPad Prism version 7.0c (GraphPad Software, La Jolla, CA). Unless otherwise stated, the inward currents induced by agonists in oocytes were normalized to the maximal response elicited by a specific agonist (agonist Imax) on each oocyte. Concentration-response and concentration-inhibition curves were fitted in GraphPad Prism by nonlinear regression using the equation for sigmoidal dose-response with variable slope. Each data point represents the mean ± S.E.M. value of recordings performed on at least five oocytes in total from at least two different batches. […] The null hypothesis was rejected at P < 0.05, and the differences between the means were analyzed by Tukey’s multiple comparisons test.

The test system of test [3] is hα1-Gly/ZAC. Nature of the test: TEVC in oocytes expressing hα1-Gly/ZAC chimera. Conditions: 1 mM Gly; n = 5. Type of test: cell-based, human. The protocol:
(§5) The recordings were performed at room temperature.
(§6) Analysis of the data from the TEVC recordings were performed using Clampfit software version 10.5 (Molecular Devices, Crawley, UK) and GraphPad Prism version 7.0c (GraphPad Software, La Jolla, CA). Unless otherwise stated, the inward currents induced by agonists in oocytes were normalized to the maximal response elicited by a specific agonist (agonist Imax) on each oocyte. Concentration-response and concentration-inhibition curves were fitted in GraphPad Prism by nonlinear regression using the equation for sigmoidal dose-response with variable slope. Each data point represents the mean ± S.E.M. value of recordings performed on at least five oocytes in total from at least two different batches. For the data where statistical analysis was performed, a one-way ANOVA was used. The null hypothesis was rejected at P < 0.05, and the differences between the means were analyzed by Tukey’s multiple comparisons test.
Initially, we constructed four chimeric subunits fusing the ZAC ECD or TMD-ICD with the complementary domains from either the m5-HT3A or the hα1 GlyR subunit: ZAC/m5-HT3A, m5-HT3A/ZAC, ZAC/hα1-Gly and hα1-Gly/ZAC (Fig. 1A). […] (Fig. 1A).

For test [4], the target named is T2, WT m5-HT3AR (Mus musculus, UniProt P23979).
T2 construct: expressed in transfected cells; host or cells: Xenopus oocytes injected with cRNA (pUNIV vector)
T2 sequence (P23979 24-489): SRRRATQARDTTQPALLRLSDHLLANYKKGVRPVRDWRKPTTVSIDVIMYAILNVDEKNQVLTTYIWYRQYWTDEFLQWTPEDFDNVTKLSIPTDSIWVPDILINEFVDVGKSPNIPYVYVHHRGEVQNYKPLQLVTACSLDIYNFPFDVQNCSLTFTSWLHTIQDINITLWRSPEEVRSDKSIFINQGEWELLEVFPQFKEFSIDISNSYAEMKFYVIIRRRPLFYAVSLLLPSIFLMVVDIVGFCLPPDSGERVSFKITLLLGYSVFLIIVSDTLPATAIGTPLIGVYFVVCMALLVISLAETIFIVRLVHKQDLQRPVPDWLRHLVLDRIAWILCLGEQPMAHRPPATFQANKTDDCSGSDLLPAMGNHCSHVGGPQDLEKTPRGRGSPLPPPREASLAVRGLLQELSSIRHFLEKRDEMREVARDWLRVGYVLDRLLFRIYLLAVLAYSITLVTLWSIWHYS
Nature of the test: TEVC in Xenopus oocytes expressing WT m5-HT3AR. In kind it is cell-based. On the procedure:
as §5, §6

Test [5] addresses T3, m5-HT3A/ZAC (Mus musculus / Homo sapiens, UniProt P23979).
T3 sequence (P23979 24-246): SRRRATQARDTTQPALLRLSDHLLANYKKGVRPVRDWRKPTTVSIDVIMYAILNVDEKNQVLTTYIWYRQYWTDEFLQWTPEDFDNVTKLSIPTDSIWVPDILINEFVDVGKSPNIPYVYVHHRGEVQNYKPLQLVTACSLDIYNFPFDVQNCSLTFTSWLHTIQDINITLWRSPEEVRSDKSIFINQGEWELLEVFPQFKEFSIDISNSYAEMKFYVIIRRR
T3 sequence (Q401N2 231-412 partner): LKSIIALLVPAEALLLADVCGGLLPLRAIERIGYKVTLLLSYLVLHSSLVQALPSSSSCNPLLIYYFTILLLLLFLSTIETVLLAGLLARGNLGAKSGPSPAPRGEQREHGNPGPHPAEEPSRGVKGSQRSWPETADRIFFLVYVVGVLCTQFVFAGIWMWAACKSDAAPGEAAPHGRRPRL
Briefly: TEVC in oocytes expressing m5-HT3A/ZAC chimera. In kind it is cell-based.
Description: as §1, §2, §3, §4, §6

Test [6] has as its system m5-HT3A^FPR/ZAC. Briefly: TEVC in oocytes, Cys-loop modified chimera m5-HT3A^FPR/ZAC. In kind it is cell-based, mouse/human. Conditions: data not shown. On the procedure:
as §5
To probe the effects of exchanges of regions involved in the ECD/TMD cross-talk between the two CLRs fused in a chimera on its functionality, we constructed 12 additional chimeras, three for each of the four original chimeras (Fig. 1A). Inspired by the similar modifications that have been introduced in a functional GLIC/hα1-Gly chimera, we swapped one or both of two specific regions: the three-residue FPX (Phe-Pro-X) motif in the Cys-loop of the ECD (FPR, FPF and […] in ZAC, m5-HT3A and hα1 GlyR, respectively), which is known to protude into proximity of the M2-M3 linker during the ECD/TMD cross-talk, and the extracellular C-terminus of the TMD, which differs substantially in both amino acid sequence and length between ZAC and the two classical CLRs combined with it in the chimeras (Fig. 4B). […] In light of this, it was not surprising that the four chimeras comprising exchanges of both the FPX motif and the C-terminus also were non-functional (data not shown).

Setting [7] is: sustained (4 min) application of 100 μM 5-HT.
The mark [8] stands for this setting: sustained (4 min) application of 3 μM 5-HT.

Several values for one entry are separate records, joined by “and”; a condition that tells them apart may be missing. Equal values may be shown once.

Two compounds from paper PMC11359809, “Probing the molecular basis for signal transduction through the Zinc-Activated Channel (ZAC)” (Biochemical pharmacology, 2021) can be followed below.

Regarding `NCC(=O)O` [Gly, glycine], the agonist-evoked current entry in test [1] was “did not induce significant responses”. For the same compound, in test [2], the “Imax (current amplitude evoked by saturating agonist)” value is listed as 2.02 ± 0.24 μA, the Δtpeak-to-plateau came out at 52 ± 5.9 s and the Δtstart-to-peak amounted to 2.7 ± 0.3 s. In addition, the “I1 mM Gly ± S.E.M.” value in test [3] is reported as −0.0062 ± 0.0022 μA.

For `NCCc1c[nH]c2ccc(O)cc12` [5-HT, 5-hydroxytryptamine], the “Imax (current amplitude evoked by saturating agonist)” value in test [4] (300 μM 5-HT, n = 7) came out at 2.92 ± 0.13 μA; in test [5] (3 μM 5-HT, n = 12), 0.60 ± 0.19 μA. Further, the “nH ± S.E.M. (Hill slope)” value in test [4] (agonist, n = 7) is reported as 1.3 ± 0.3. The “Iresidual, 4 min” value was ~0 (none) % of Ipeak in test [4] (setting [7]); 67 % of Ipeak and 67 ± 6 % of Ipeak in test [5] (setting [8]). Besides, the Δtstart-to-peak in test [4] (setting [7]) is 2.1 ± 0.4 s; in test [5] (setting [8]), 46 ± 7.2 s. Moreover, the “time to complete return to baseline” value in test [4] (sustained application of 100 μM 5-HT, mean ± S.E.M., n = 7) is 98 ± 12 s. Besides, the 5-HT-evoked current amplitudes is given as 0.8–2.1 μA in test [5] (high-expressing half of the oocytes) and 0.1–0.2 μA in test [5] (low-expressing half of the oocytes). The “concentration-response relationship compared to m5-HT3A/ZAC” value in test [6] is given as “not significantly different”.
